Source: PubChem BioAssay (NCI)
“And” between values parts separate entries of the source, which are not always exact repeats. Identical values can stand only once.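 96-well plates; 48 h exposure; 5 concentrations. Endpoints by linear interpolation between flanking doses. Not reached: highest tested concentration assigned. The concentration for 50% growth inhibition is given as GI50. Definition used: TGI = concentration required for complete inhibition of growth.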

Experiments:
Assay in all cases: NCI tumour cell line growth inhibition, 48 h
MOLT-4 leukemia = test system: MOLT-4 leukemia
ACHN renal = test system: ACHN renal
UACC-62 melanoma = test system: UACC-62 melanoma
A498 renal = test system: A498 renal
HS 578T breast = test system: HS 578T breast
PC-3 prostate = test system: PC-3 prostate
HCT-116 colon = test system: HCT-116 colon
CCRF-CEM leukemia = test system: CCRF-CEM leukemia
NCI/ADR-RES ovarian = test system: NCI/ADR-RES ovarian
LOX IMVI melanoma = test system: LOX IMVI melanoma

Compound	GI50 (MOLT-4 leukemia) [µM]	TGI (MOLT-4 leukemia) [µM]	GI50 (ACHN renal) [µM]	TGI (ACHN renal)	GI50 (UACC-62 melanoma) [µM]	TGI (UACC-62 melanoma)	GI50 (A498 renal) [µM]	TGI (A498 renal)	GI50 (HS 578T breast) [µM]	TGI (HS 578T breast) [µM]	GI50 (PC-3 prostate) [µM]	TGI (PC-3 prostate)	GI50 (HCT-116 colon) [µM]	TGI (HCT-116 colon)	GI50 (CCRF-CEM leukemia) [µM]	TGI (CCRF-CEM leukemia) [µM]	GI50 (NCI/ADR-RES ovarian) [µM]	TGI (NCI/ADR-RES ovarian) [µM]	GI50 (LOX IMVI melanoma) [µM]	TGI (LOX IMVI melanoma)
O=S(=O)(NCCCNc1cc(-c2cn(-c3ccccc3)nc2-c2cccc(O)c2)ccn1)c1ccc(Cl)cc1	1.26	3.69	2.74	13.6 µM	1.67	3.67 µM	0.329	2.24 µM	1.16	4.77	1.74	6.1 µM	1.57	3.29 µM	2.43	7.85	1.94	5.3	1.42	2.77 µM
CCCCCCCCCC(CCCC(O)CC(=O)O)OC1OC(COC2OC(C)C(O)C(O)C2O)C(O)C(O)C1OC1OC(CO)C(O)C(O)C1OC1OC(C)C(O)C(O)C1O (stereo not given)	> 40	> 40	> 40	> 40 µM	> 40	> 40 µM	> 40	> 40 µM	> 40	> 40	> 40	> 40 µM	> 40	> 40 µM	> 40	> 40	> 40	> 40	> 40	> 40 µM
COc1cc(C2C(C#N)=C(N)Oc3cc(O)ccc32)cc(OC)c1OC (stereo not given)	0.584	> 100	0.882	> 100 µM	0.407	> 100 µM	0.218	1.45 µM	0.4	> 100	0.619	> 100 µM	0.428	> 100 µM	0.37	> 100	1.72	> 100	0.546	> 100 µM
CC([O-])C(=O)[O-].NCC1CCC1CN.[Pt+4] (stereo not given)	8.71	> 10	6.19	> 10 µM	6.87	> 10 µM	–	–	> 10	> 10	> 10	> 10 µM	> 10	> 10 µM	4.39	> 10	> 10	> 10	> 10	> 10 µM
COC(=O)C1C2CCCN2OC1(C)CO (stereo not given)	–	> 100	–	> 100 µM	–	> 100 µM	–	> 100 µM	–	> 100	–	> 100 µM	–	> 100 µM	–	> 100	–	> 100	–	> 100 µM
COc1ccc(-c2coc3cc(OC)cc(O)c3c2=O)cc1	–	–	–	> 100 µM	–	> 100 µM	–	89.1 µM	–	> 100	–	> 100 µM	–	> 100 µM	–	> 100	–	> 100	–	> 100 µM
CC[C@@]1(O)C(=O)OCc2c1cc1n(c2=O)Cc2c-1nc1ccccc1c2/C=N/OC(C)(C)C	< 0.01	0.742	< 0.01	0.127 µM	< 0.01	0.118 µM	< 0.0169	0.169 µM	1.13	> 85.5	0.0769	27.2 µM	< 0.01	13.4 µM	< 0.01	> 100	< 0.01	0.395	< 0.01	0.133 µM
CC/C=C\C/C=C\C[C@H]1C/C=C2/C(=O)C=C[C@H]2C/C=C\CCC(=O)O1	3.48	10.5	2.6	5.2 µM	2.09	5.47 µM	4.07	13.3 µM	4.85	> 14.3	3.39	12.5 µM	3.63	> 14.3 µM	2.89	13	4.7	> 14.3	2.34	4.78 µM
CCCN1CCN(c2ccc3nc(-c4ccc5nc(-c6ccc(OCC)c(OCC)c6)[nH]c5c4)[nH]c3c2)CC1	0.471	3.34	1	2.6 µM	0.348	1.87 µM	0.538	1.82 µM	1.11	3.56	0.381	1.92 µM	0.218	1.19 µM	0.394	3.07	> 100	> 100	0.198	0.461 µM
S=C(N/N=C(/c1ccccc1)c1ccccn1)Nc1cccc(Cl)c1	0.00303	–	–	4.6 µM and 5.42 µM	–	0.793 µM and 2.66 µM	0.195	1.72 µM and 6.29 µM	0.0125	–	0.0264	7.05 µM and 6.71 µM	0.00475	1.91 µM and 1.76 µM	< 0.001	0.0383	0.0619	4.38	0.729	3.72 µM and > 34 µM
COc1ccc(CNc2nc(NCc3ccc(OC)cc3)c3n[nH]c(C(C)C)c3n2)cc1	3.88	14.4	7.6	20.7 µM	5.94	20 µM	2.21	16.7 µM	2.97	26	4.29	23.8 µM	4.06	22.6 µM	3.73	15.4	3.59	15.9	4.45	17.3 µM
C=C(CN1CCN(c2cccc(F)c2)CC1)c1ccc(C(=O)Nc2ccccc2N)cc1	0.315	2.76	4.59	90.7 µM	2.02	63.5 µM	2.12	9.08 µM	2.61	> 100	0.689	4.03 µM	1.08	12.5 µM	–	–	0.307	1.92	1.67	13.1 µM
O=c1cccc(C#CC#C/C=C/CO)o1	9.1	> 100	2.13	4.86 µM	1.68	3.39 µM	7.57	22.7 µM	6.87	39.9	2.94	11.3 µM	5.71	> 100 µM	–	–	2.52	–	1.55	3.32 µM
O=C1OC2C(O)C(=O)OC2C1O (stereo not given)	–	> 100	–	> 100 µM	–	> 100 µM	–	> 100 µM	–	–	–	> 100 µM	–	> 100 µM	–	> 100	–	> 100	–	> 100 µM
O=CC1(C2(C=O)c3ccccc3-c3ccccc32)c2ccccc2-c2ccccc21	1.38	3.33	1.83	4.19 µM	2.69	6.25 µM	2.33	5.36 µM	2.7	7.49	1.44	4.65 µM	–	–	3.77	11.6	2.54	6.99	1.89	3.98 µM
O=C1c2ccccc2C(=O)c2c1ccc1c2OCO1	–	> 100	–	–	–	> 100 µM	–	> 100 µM	–	> 100	–	> 100 µM	–	> 100 µM	–	–	–	> 100	–	> 100 µM

Compound	GI50 (MOLT-4 leukemia) [µM]	TGI (MOLT-4 leukemia) [µM]	GI50 (ACHN renal) [µM]	TGI (ACHN renal)	GI50 (UACC-62 melanoma) [µM]	TGI (UACC-62 melanoma)	GI50 (A498 renal) [µM]	TGI (A498 renal)	GI50 (HS 578T breast) [µM]	TGI (HS 578T breast) [µM]	GI50 (PC-3 prostate) [µM]	TGI (PC-3 prostate)	GI50 (HCT-116 colon) [µM]	TGI (HCT-116 colon)	GI50 (CCRF-CEM leukemia) [µM]	TGI (CCRF-CEM leukemia) [µM]	GI50 (NCI/ADR-RES ovarian) [µM]	TGI (NCI/ADR-RES ovarian) [µM]	GI50 (LOX IMVI melanoma) [µM]	TGI (LOX IMVI melanoma)
C=C1N(C)c2ccc(Cl)cc2C1(C)C	6.94	55	24.6	> 100 µM	11.7	29.5 µM	11	43.6 µM	6.34	> 100	–	–	3.52	17.5 µM	12.9	69.2	34.8	> 100	6.98	55.5 µM
CCC/C(=N\NC(=O)c1cc2ccccc2cc1O)C(CC)C(=O)CCC(=O)N(Cc1ccccc1)Cc1ccccc1 (stereo not given)	–	> 100	–	> 100 µM	–	70 µM	–	> 100 µM	–	–	–	–	–	> 100 µM	–	41.7	–	–	–	> 100 µM
O=C(CCl)Nc1ccc2c(c1)C(=O)c1ccc(NC(=O)CCl)cc1C2=O	0.241	2.13	–	–	0.299	0.99 µM	3.49	27.6 µM	1.29	9.57	0.876	2.5 µM	0.199	0.768 µM	0.127	0.896	0.352	1.78	0.0935	0.229 µM
CC1=CC2C(C(C)C)CC1C1C(=O)OC(=O)C21 (stereo not given)	–	–	–	> 100 µM	–	> 100 µM	–	> 100 µM	–	> 100	–	> 100 µM	–	> 100 µM	–	–	–	> 100	–	> 100 µM
CC(=O)NC(CCCCNC(=O)N(C)N=O)C(=O)NCc1ccccc1 (stereo not given)	–	> 100	–	> 100 µM	–	> 100 µM	–	> 100 µM	–	–	–	–	–	> 100 µM	–	> 100	–	–	–	> 100 µM
CC(C)Oc1ccc(C(=O)N[C@H](CNC(=O)CN(C)C)Cc2ccc(-c3cn4cccc([C@H](C)O)c4n3)cc2)cc1Cl	0.0441	18	6.6	21.8 µM	0.0706	24.3 µM	0.213	13.9 µM	1.38	33.4	0.0664	21.4 µM	0.0355	14.2 µM	–	–	2.64	19.8	0.0736	14.5 µM
C[C@]12CC[C@H]3[C@@H](C[C@@H]4N=C(c5ccc(O)cc5)S[C@@]45C[C@H](O)CC[C@]35C)[C@@H]1CC[C@@H]2O	1.93	> 100	7.55	> 100 µM	2.43	7.64 µM	3.51	21.3 µM	1.59	60.1	–	–	2.37	27.4 µM	2.05	47.2	6.77	> 100	2.67	14.6 µM
O=C(CN1CCN(c2ccc(Cl)cc2)CC1)N1CCN(c2nnc(-c3ccccc3)c(-c3ccccc3)n2)CC1	2.41	> 100	5.07	> 100 µM	–	–	> 100	> 100 µM	51.6	> 100	3.1	> 100 µM	3.42	> 100 µM	21.6	> 100	5.4	> 100	7.26	> 100 µM
O=C1C(N2C(=O)c3ccccc3C2=O)CN1C(COCc1ccccc1)c1ccc(OCc2ccccc2)cc1 (stereo not given)	–	> 100	–	> 100 µM	–	> 100 µM	–	> 100 µM	–	–	–	–	–	> 100 µM	–	> 100	–	–	–	> 100 µM
CC1=C(C(=O)Nc2ccccc2C)C(c2ccc(C3C(C(=O)Nc4ccccc4C)=CNC=C3C(=O)Nc3ccccc3C)cc2)C(C(=O)Nc2ccccc2C)=C(C)N1	–	> 40.3	–	30.6 µM	–	31.9 µM	–	41.7 µM	–	–	–	–	–	> 49.7 µM	–	> 29	–	–	–	21.7 µM
CSc1ccc2c(cc1=O)[C@@H](NC(=O)c1ccc(F)cc1)CCc1cc(O)c(O)c(O)c1-2	–	> 100	–	> 100 µM	–	> 100 µM	–	> 100 µM	–	–	–	–	–	> 100 µM	–	> 100	–	–	–	> 100 µM
CCOC(=O)/C=C/c1ccccn1	–	> 100	–	> 100 µM	–	> 100 µM	–	> 100 µM	–	–	–	–	–	> 100 µM	–	> 100	–	–	–	> 100 µM
O=c1/c(=C/c2ccc3c(c2)OCO3)sc2nnc(-c3ccco3)n12	–	> 100	–	> 100 µM	–	> 100 µM	–	> 100 µM	–	–	–	–	–	> 100 µM	–	> 100	–	–	–	> 100 µM
N#CC1=C(c2ccccc2)C(O)(c2ccccc2)NC1=O (stereo not given)	–	> 100	–	> 100 µM	–	> 100 µM	–	60.6 µM	–	–	–	–	–	> 100 µM	–	> 100	–	–	–	> 100 µM
Oc1cc2c(cc1O)-c1[nH]ncc1CC2	–	88.8	–	> 100 µM	–	90.4 µM	–	95.8 µM	–	–	–	–	–	> 100 µM	–	47.7	–	–	–	> 100 µM
COc1ccc(Cn2c(Br)c3c(c2-c2cc(OC)c(OC)c(OC)c2)CCc2sc(NC(C)=O)nc2-3)cc1	4.37	> 100	5.27	26.9 µM	4.29	> 100 µM	2.5	9.58 µM	–	–	3.44	> 100 µM	3.4	14.6 µM	–	–	4.97	> 100	4.45	42.8 µM
